Measurements reported in the NIST ThermoML archive (doi:10.1016/j.jct.2006.08.007).
Numbers after ± are expanded uncertainties. One block for each molecule: values may come before it.

Assay: xn = mol fraction of the nth substance listed
Details: 279.15 K, 101 kPa, Liquid

mass density (x1 = 0.018): 1008.9 ± 3.2 kg/m3 | speed of sound (x1 = 0.018): 1490 ± 12 m/s | mass density (x1 = 0.048): 1021 ± 3.3 kg/m3 | speed of sound (x1 = 0.048): 1544.4 ± 13 m/s | mass density (x1 = 0.077): 1031.1 ± 3.4 kg/m3 | speed of sound (x1 = 0.077): 1580 ± 13 m/s | mass density (x1 = 0.096): 1035.1 ± 3.5 kg/m3 | speed of sound (x1 = 0.096): 1590.4 ± 13 m/s | mass density (x1 = 0.24): 1051.2 ± 4.1 kg/m3 | speed of sound (x1 = 0.24): 1587.6 ± 13 m/s | mass density (x1 = 0.387): 1052.8 ± 4.9 kg/m3 | speed of sound (x1 = 0.387): 1531.6 ± 13 m/s | mass density (x1 = 0.595): 1051.7 ± 6.3 kg/m3 | speed of sound (x1 = 0.595): 1479.4 ± 13 m/s
Compound: C1COCCO1 [1,4-dioxane] + O

mass density (x1 = 0.053): 986.6 ± 3.2 kg/m3 | speed of sound (x1 = 0.053): 1540 ± 13 m/s | mass density (x1 = 0.091): 974.3 ± 3.2 kg/m3 | speed of sound (x1 = 0.091): 1549.6 ± 13 m/s | mass density (x1 = 0.146): 955.5 ± 3.3 kg/m3 | speed of sound (x1 = 0.146): 1511.8 ± 13 m/s | mass density (x1 = 0.187): 941.9 ± 3.3 kg/m3 | speed of sound (x1 = 0.187): 1476.2 ± 12 m/s | mass density (x1 = 0.296): 909.5 ± 3.6 kg/m3 | speed of sound (x1 = 0.296): 1451 ± 12 m/s | mass density (x1 = 0.376): 888.4 ± 3.8 kg/m3 | speed of sound (x1 = 0.376): 1425 ± 12 m/s | mass density (x1 = 0.518): 859 ± 4.2 kg/m3 | speed of sound (x1 = 0.518): 1387.2 ± 12 m/s | mass density (x1 = 0.692): 831.5 ± 4.9 kg/m3 | speed of sound (x1 = 0.692): 1352 ± 12 m/s | mass density (x1 = 0.889): 807.2 ± 5.9 kg/m3 | speed of sound (x1 = 0.889): 1321 ± 12 m/s
Compound: CC#N [acetonitrile] + O

mass density (x1 = 0.023): 1000.9 ± 3.2 kg/m3 | speed of sound (x1 = 0.023): 1511.6 ± 13 m/s | mass density (x1 = 0.0485): 1002.9 ± 3.2 kg/m3 | speed of sound (x1 = 0.0485): 1578.6 ± 13 m/s | mass density (x1 = 0.0714): 1005.2 ± 3.3 kg/m3 | speed of sound (x1 = 0.0714): 1625 ± 13 m/s | mass density (x1 = 0.0972): 1007.3 ± 3.4 kg/m3 | speed of sound (x1 = 0.0972): 1664.6 ± 14 m/s | mass density (x1 = 0.2457): 1009.7 ± 3.9 kg/m3 | speed of sound (x1 = 0.2457): 1748 ± 14 m/s | mass density (x1 = 0.3865): 1002.2 ± 4.5 kg/m3 | speed of sound (x1 = 0.3865): 1714.6 ± 14 m/s | mass density (x1 = 0.5924): 986.6 ± 5.7 kg/m3 | speed of sound (x1 = 0.5924): 1646 ± 14 m/s | mass density (x1 = 0.844): 970 ± 7.6 kg/m3 | speed of sound (x1 = 0.844): 1564 ± 14 m/s
Compound: CN(C)C=O [dimethylformamide] + O

mass density (x1 = 0.046): 996.6 ± 5.9 kg/m3 | speed of sound (x1 = 0.046): 1571.5 ± 13 m/s | mass density (x1 = 0.086): 994.4 ± 5.9 kg/m3 | speed of sound (x1 = 0.086): 1610.7 ± 13 m/s | mass density (x1 = 0.19): 979 ± 6.2 kg/m3 | speed of sound (x1 = 0.19): 1554 ± 13 m/s | mass density (x1 = 0.33): 970.5 ± 6.7 kg/m3 | speed of sound (x1 = 0.33): 1474.2 ± 12 m/s | mass density (x1 = 0.54): 934 ± 7.4 kg/m3 | speed of sound (x1 = 0.54): 1420.7 ± 12 m/s | mass density (x1 = 0.74): 919.2 ± 8.6 kg/m3 | speed of sound (x1 = 0.74): 1396.7 ± 12 m/s
Compound: C1CCOC1 [tetrahydrofuran] + O

mass density (x2 = 0): 999.9 ± 5.8 kg/m3 | speed of sound (x2 = 0): 1433 ± 12 m/s
Compound: O [water] + C1CCOC1

mass density (x2 = 0): 999.9 ± 3.1 kg/m3 | speed of sound (x2 = 0): 1430.4 ± 12 m/s
Compound: O [water] + C1COCCO1

mass density (x2 = 0): 999.9 ± 3.1 kg/m3 | speed of sound (x2 = 0): 1430.4 ± 12 m/s
Compound: O [water] + CC#N

mass density (x2 = 0): 999.9 ± 3.1 kg/m3 | speed of sound (x2 = 0): 1430.4 ± 12 m/s
Compound: O [water] + CN(C)C=O
